Like-named read-outs stand apart in the source and are kept apart here.
Experiments:
human NK-3 receptor [1] = target: T1, human NK-3 receptor (Homo sapiens (Human), UniProt P29371); test: 3H-SB222200 binding competition assay with human NK-3 receptor
Protocol: The affinity of compounds of the invention for the human NK-3 receptor was determined by measuring the ability of compounds of the invention to competitively and reversibly displace a well-characterized NK-3 radioligand in a concentration-dependent manner.
^3H-SB222200 Binding Competition Assay with Human NK-3 Receptor
Membranes were prepared from Chinese hamster ovary recombinant cells stably expressing the human NK-3 receptor. The membranes were incubated with 5 nM ^3H-SB222200 (ARC) in a HEPES 25 mM/NaCl 0.1M/CaCl2 1 mM/MgCl2 5 mM/BSA 0.5%/Saponin 10 μg/ml buffer at pH 7.4 and various concentrations of compounds of the invention. The amount of ^3H-SB222200 bound to the receptor was determined after filtration by the quantification of membrane associated radioactivity using the TopCount-NXT reader (Packard).

human NK-1 receptor = human NK-1 receptor (Homo sapiens (Human), UniProt P25103); test: Selectivity assay: [3H] substance P binding, human NK-1 receptor; settings: 2 nM [3H] substance P, CHO membranes; read-out: hNK-1 (Ki)
Protocol: Selectivity of the compounds of the invention was determined over the other human NK receptors, namely NK-1 and NK-2 receptors.
The affinity of compounds of the invention for the NK-1 receptor was evaluated in CHO recombinant cells which express the human NK-1 receptor. Membrane suspensions were prepared from these cells. The following radioligand: [^3H] substance P (PerkinElmer Cat #NET111520) was used in this assay. Binding assays were performed in a 50 mM Tris/5 mM MnCl2/150 mM NaCl/0.1% BSA at pH 7.4. Binding assays consisted of 25 μl of membrane suspension (approximately 5 μg of protein/well in a 96 well plate), 50 μl of compound or reference ligand (Substance P) at increasing concentrations (diluted in assay buffer) and 2 nM [^3H] substance P. The plate was incubated 60 min at 25° C. in a water bath and then filtered over GF/C filters (Perkin Elmer, 6005174, presoaked in 0.5% PEI for 2 h at room temperature) with a Filtration unit (Perkin Elmer). The radioactivity retained on the filters was measured by using the TopCount-NXT reader (Packard).

plasma protein = test: Determination of plasma protein binding (equilibrium dialysis, RED); type: in vitro ADME; settings: 4 hours at 37° C.
Excerpt: Determination of plasma protein binding The pharmacokinetic and pharmacodynamic properties of chemicals/drugs are largely a function of the reversible binding of chemicals to plasma or serum proteins. […] Consequently, the extent of the plasma protein binding (PPB) of a compound influences its action as well as its distribution and elimination.
The determination of plasma protein binding (PPB) of a compound is enabled by equilibrium dialysis, an accepted and standard method for reliable estimation of the non-bound drug fraction in plasma. RED (Rapid Equilibrium Dialysis) device insert is made of two side-by-side chambers separated by an O-ring-sealed vertical cylinder of dialysis membrane (MWCO ˜8,000). […] After 4 hours incubation at 37° C. under shaking, an aliquot is removed from each chamber and analyzed by a LC-MS/MS procedure enables the determination of both free and bound drug.
The “free fraction” may be calculated as 100%−% rPPB (i.e. the complementary percentage of that disclosed in Table 4, corresponding to the drug concentration that is unbound and therefore available to engage biological target and elicit pharmacological activity).

[2] = system: circulating levels of luteinizing hormone (LH); test: Castrated male rat model, circulating luteinizing hormone (LH); type: in vivo; settings: single oral dose less than or equal to 30 mg/kg, p<0.05
Protocol: Castrated Male Rat Model to Assess the Effect of Compound of Invention on Circulating Levels of Luteinizing Hormone (LH)
The effect of compounds of the invention to inhibit luteinizing hormone (LH) secretion is determined by the following biological studies.
In humans and rodents, castration is well-precedented to permit heightened, persistent GnRH signaling and consequent elevation of circulating LH. Thus, a castrated rat model is used to provide a broad index for measurement of LH inhibition as a marker of test compound inhibition of the GnRH signaling pathway.
Castrated adult male Sprague-Dawley (SD) rats (150-175 g,) were purchased from Janvier (St Berthevin, France). All animals were housed 2 per cage in a temperature-controlled room (22±2° C.) and 50±5% relative humidity with a 12 hour/12 hour light/dark cycles (lights off at […]). The animals were allowed 3 weeks of postoperative recovery prior to study. Animals were handled on a daily basis. Standard diet and tap water were provided ad libitum. Animal cage litters were changed once a week. On the study day, animals were acclimated to the procedure room for a period of one hour prior to the initiation of the experiment.
Compounds of the invention were formulated in 0.5% methyl cellulose.
After basal sampling (TO) a single dose of compounds of the invention or vehicle was administrated orally to rats. Blood samples were then collected at several time points post dosing (45, 90, 150, 300 and 420 minutes). Blood samples were obtained via tail vein bleed, drawn into EDTA-containing tubes and centrifuged immediately. Plasma samples were collected and stored in a −80° C. freezer until assayed. Serum LH levels were determined using radioimmunoassay kit from RIAZEN—Rat L H, Zentech (Liege, Belgium). Baseline was defined as the initial basal blood sample.

human NK-3 receptor [3] = target: T1, human NK-3 receptor; test: Aequorin functional assay with human NK-3 receptor (antagonist testing vs NKA); type: cell-based; settings: CHO cells, NKA at EC80 (3 nM); read-out: Functional assay: Aequorin assay with human NK-3 receptor hNK-3-AEQ (antagonist IC50)
Protocol: Aequorin Assay with Human NK-3 Receptor
Changes in intracellular calcium levels are a recognized indicator of G protein-coupled receptor activity. The efficacy of compounds of the invention to inhibit NKA-mediated NK-3 receptor activation was assessed by an in vitro Aequorin functional assay. Chinese Hamster Ovary recombinant cells expressing the human NK-3 receptor and a construct that encodes the photoprotein apoaequorin were used for this assay. In the presence of the cofactor coelenterazine, apoaequorin emits a measurable luminescence that is proportional to the amount of intracellular (cytoplasmic) free calcium.
The antagonist activity of compounds of the invention is measured following pre-incubation (3 minutes) of the compound (at various concentrations) with the cells, followed by addition of the reference agonist (NKA) at a final concentration equivalent to the EC80 (3 nM) and recording of emitted light (FDSS 6000 Hamamatsu) over the subsequent 90-second period. The intensity of the emitted light is integrated using the reader software. Compound antagonist activity is measured based on the concentration-dependent inhibition of the luminescence response to the addition of Neurokinin A.

human NK-2 receptor = human NK-2 receptor (Homo sapiens (Human), UniProt P21452); test: Selectivity assay: [125I]-Neurokinin A binding, human NK-2 receptor; settings: 0.1 nM [125I]-Neurokinin A, CHO membranes; read-out: hNK-2 (Ki)
Protocol: The affinity of compounds of the invention for the NK-2 receptor was evaluated in CHO recombinant cells which express the human NK-2 receptor. Membrane suspensions were prepared from these cells. […] Binding assays were performed in a 25 mM HEPES/1 mM CaCl2)/5 mM MgCl2/0.5% BSA/10 μg/ml saponin, at pH 7.4. […] The radioactivity retained on the filters was measured by using the TopCount-NXT reader (Packard).

[4] = Table 2, 5 nM 3H-SB222200, CHO membranes, read-out: Competitive binding assay with human NK-3 receptor hNK-3 (Ki)
[5] = Table 3 (selectivity table), read-out: hNK-3 (Ki)

human NK-2 receptor, sequence (P21452 whole entry): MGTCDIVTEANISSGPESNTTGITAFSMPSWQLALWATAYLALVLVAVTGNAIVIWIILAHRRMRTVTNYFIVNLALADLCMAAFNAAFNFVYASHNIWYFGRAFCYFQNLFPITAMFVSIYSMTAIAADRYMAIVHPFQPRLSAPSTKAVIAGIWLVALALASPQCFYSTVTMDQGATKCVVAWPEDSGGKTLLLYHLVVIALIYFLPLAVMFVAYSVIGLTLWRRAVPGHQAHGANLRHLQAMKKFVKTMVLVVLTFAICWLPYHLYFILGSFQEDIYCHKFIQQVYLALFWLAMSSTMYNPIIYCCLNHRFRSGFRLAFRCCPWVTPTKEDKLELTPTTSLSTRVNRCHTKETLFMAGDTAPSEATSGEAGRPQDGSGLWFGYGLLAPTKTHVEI
T1 sequence (P29371 whole entry): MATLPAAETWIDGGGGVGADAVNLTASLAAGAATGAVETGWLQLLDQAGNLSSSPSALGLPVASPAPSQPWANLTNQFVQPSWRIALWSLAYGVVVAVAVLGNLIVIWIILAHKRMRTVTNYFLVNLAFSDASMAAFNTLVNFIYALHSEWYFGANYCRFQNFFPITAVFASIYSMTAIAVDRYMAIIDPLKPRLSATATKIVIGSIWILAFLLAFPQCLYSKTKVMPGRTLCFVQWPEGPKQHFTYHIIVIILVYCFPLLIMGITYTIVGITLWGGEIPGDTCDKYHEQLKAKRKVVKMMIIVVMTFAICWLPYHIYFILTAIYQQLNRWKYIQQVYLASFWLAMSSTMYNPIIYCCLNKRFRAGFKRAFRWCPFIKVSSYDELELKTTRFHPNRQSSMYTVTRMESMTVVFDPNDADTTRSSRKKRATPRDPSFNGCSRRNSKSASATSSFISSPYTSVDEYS
human NK-1 receptor, sequence (P25103 whole entry): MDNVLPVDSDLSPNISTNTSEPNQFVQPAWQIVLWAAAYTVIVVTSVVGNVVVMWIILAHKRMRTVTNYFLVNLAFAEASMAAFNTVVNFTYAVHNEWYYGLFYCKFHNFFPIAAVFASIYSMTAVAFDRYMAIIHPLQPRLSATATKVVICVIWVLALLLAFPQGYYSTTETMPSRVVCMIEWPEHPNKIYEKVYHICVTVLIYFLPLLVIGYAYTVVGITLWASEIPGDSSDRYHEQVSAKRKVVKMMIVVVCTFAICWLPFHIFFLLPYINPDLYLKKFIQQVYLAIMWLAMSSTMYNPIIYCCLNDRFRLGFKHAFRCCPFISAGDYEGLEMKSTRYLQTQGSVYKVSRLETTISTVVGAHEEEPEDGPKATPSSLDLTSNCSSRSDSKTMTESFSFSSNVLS

Row | SMILES | Ki (human NK-3 receptor [1]; [4]) | Ki (human NK-3 receptor [1]; [5]) | Ki (human NK-1 receptor) | Exposure (% rPPB), bound drug fraction to plasma protein (plasma protein) | circulating LH levels [2] | IC50 (human NK-3 receptor [3]) | Ki (human NK-2 receptor)
1 | Cc1nsc(-c2nnc3n2CCN(C(=O)c2ccc(Cl)c(Cl)c2)[C@@H]3C)n1 [Compound 1, (R)-(3,4-dichlorophenyl)(8-methyl-3-(3-methyl-1,2,4-thiadiazol-5-yl)-5,6-dihydro-[1,2,4]triazolo[4,3-a]pyrazin-7(8H)-yl)methanone] | 11 nM | 11 nM | 10300 nM | 67% | significantly suppressed | 16 nM | 7500 nM
2 | CCc1nsc(-c2nnc3n2CCN(C(=O)c2ccc(F)cc2)[C@@H]3C)n1 [Compound 2, (R)-(3-(3-ethyl-1,2,4-thiadiazol-5-yl)-8-methyl-5,6-dihydro-[1,2,4]triazolo[4,3-a]pyrazin-7(8H)-yl)(4-fluorophenyl)methanone] | 15 nM | 15 nM | 23800 nM | 47% | significantly suppressed | 12 nM | > 30000 nM
3 | Cc1nsc(-c2nnc3n2CCN(C(=O)c2ccccc2)[C@@H]3C)n1 [Compound 20, (R)-(8-methyl-3-(3-methyl-1,2,4-thiadiazol-5-yl)-5,6-dihydro-[1,2,4]triazolo[4,3-a]pyrazin-7(8H)-yl)(phenyl)methanone] | 60 nM | 60 nM | > 30000 nM |  | significantly suppressed | 93 nM | > 30000 nM
4 | Cc1nsc(-c2nnc3n2CCN(C(=O)c2ccccc2C)[C@@H]3C)n1 [Compound 26, (R)-(8-methyl-3-(3-methyl-1,2,4-thiadiazol-5-yl)-5,6-dihydro-[1,2,4]triazolo[4,3-a]pyrazin-7(8H)-yl)(o-tolyl)methanone] | 88 nM | 88 nM | > 30000 nM | 19% |  | 74 nM | > 30000 nM
5 | Cc1noc(-c2nnc3n2CCN(C(=O)c2ccc(F)cc2)[C@@H]3C)n1 [Compound 28, (R)-(4-fluorophenyl)(8-methyl-3-(3-methyl-1,2,4-oxadiazol-5-yl)-5,6-dihydro-[1,2,4]triazolo[4,3-a]pyrazin-7(8H)-yl)methanone] | 110 nM | 110 nM | > 30000 nM | 12% |  | 160 nM | > 30000 nM
6 | Cc1nsc(-c2nnc3n2CCN(C(=O)c2ccc(C#N)cc2)[C@@H]3C)n1 [Compound 29, (R)-4-(8-methyl-3-(3-methyl-1,2,4-thiadiazol-5-yl)-5,6,7,8-tetrahydro-[1,2,4]triazolo[4,3-a]pyrazine-7-carbonyl)benzonitrile] | 150 nM | 150 nM | > 30000 nM | 10% |  | 170 nM | > 30000 nM
7 | CCc1noc(-c2nnc3n2CCN(C(=O)c2ccc(-c4cccs4)cc2)[C@@H]3C)n1 [Compound 30, (R)-(3-(3-ethyl-1,2,4-oxadiazol-5-yl)-8-methyl-5,6-dihydro-[1,2,4]triazolo[4,3-a]pyrazin-7(8H)-yl)(4-(thiophen-2-yl)phenyl)methanone] | 7 nM | 7 nM | 40000 nM | 94% | significantly suppressed | 5 nM | 
8 | C[C@@H]1c2nnc(-c3nc(C(F)F)ns3)n2CCN1C(=O)c1ccc(F)cc1 [Compound 42, (R)-(3-(3-(difluoromethyl)-1,2,4-thiadiazol-5-yl)-8-methyl-5,6-dihydro-[1,2,4]triazolo[4,3-a]pyrazin-7(8H)-yl)(4-fluorophenyl)methanone] | 48 nM | 48 nM | > 30000 nM | 16% |  | 39 nM | > 30000 nM
9 | C[C@@H]1c2nnc(-c3nc(C(C)(F)F)no3)n2CCN1C(=O)c1ccc(F)cc1 [Compound 43, (R)-(3-(3-(1,1-difluoroethyl)-1,2,4-oxadiazol-5-yl)-8-methyl-5,6-dihydro-[1,2,4]triazolo[4,3-a]pyrazin-7(8H)-yl)(4-fluorophenyl)methanone] | 59 nM | 59 nM | > 30000 nM | 47% |  | 136 nM | > 30000 nM
10 | C[C@@H]1c2nnc(-c3nc(CC(F)(F)F)no3)n2CCN1C(=O)c1ccc(F)cc1 [Compound 44, (R)-(4-fluorophenyl)(8-methyl-3-(3-(2,2,2-trifluoroethyl)-1,2,4-oxadiazol-5-yl)-5,6-dihydro-[1,2,4]triazolo[4,3-a]pyrazin-7(8H)-yl)methanone] | 45 nM | 45 nM | > 30000 nM | 31% |  | 204 nM | > 30000 nM
11 | CC(F)c1noc(-c2nnc3n2CCN(C(=O)c2ccc(F)cc2)[C@@H]3C)n1 (stereo partly drawn) [Compound 45, ((8R)-3-(3-(1-fluoroethyl)-1,2,4-oxadiazol-5-yl)-8-methyl-5,6-dihydro-[1,2,4]triazolo[4,3-a]pyrazin-7(8H)-yl)(4-fluorophenyl)methanone] | 101 nM | 101 nM | > 30000 nM | 31% |  | 244 nM | > 30000 nM
